Assays:
CCRF-CEM = assay: NCI60 one-dose screen (10 μM), Leukemia; assay type: cell-based; settings: Homo sapiens, 10 μM, Leukemia, read-out: Growth percent rate
HL-60(TB) = assay: NCI60 one-dose screen (10 μM), Leukemia; assay type: cell-based; settings: Homo sapiens; 10 μM; HL-60(TB), Leukemia; read-out: Growth percent rate
K-562 = assay: NCI60 one-dose screen (10 μM), Leukemia; assay type: cell-based; settings: Homo sapiens, K562; 10 μM; K-562, Leukemia; read-out: Growth percent rate
MOLT-4 = assay: NCI60 one-dose screen (10 μM), Leukemia; assay type: cell-based, human; settings: Homo sapiens; 10 μM; MOLT-4, Leukemia; read-out: Growth percent rate
RPMI-8226 = assay: NCI60 one-dose screen (10 μM), Leukemia; assay type: cell-based; settings: Homo sapiens; 10 μM; RPMI-8226, Leukemia; read-out: Growth percent rate
A549/ATCC = assay: NCI60 one-dose screen (10 μM), Non-small Cell Lung Cancer; assay type: cell-based; settings: Homo sapiens; 10 μM; A549/ATCC, Non-small Cell Lung Cancer; read-out: Growth percent rate
HOP-62 = assay: as above; assay type: cell-based; settings: Homo sapiens; 10 μM; HOP-62, Non-small Cell Lung Cancer; read-out: Growth percent rate
NCI-H23 = assay: as above; assay type: cell-based; settings: Homo sapiens; 10 μM; NCI-H23, Non-small Cell Lung Cancer; read-out: Growth percent rate
NCI-H322M = assay: as above; assay type: cell-based; settings: Homo sapiens, 10 μM, Non-small Cell Lung Cancer, read-out: Growth percent rate
NCI-H460 = assay: as above; assay type: cell-based; settings: Homo sapiens; 10 μM; NCI-H460, Non-small Cell Lung Cancer; read-out: Growth percent rate
COLO 205 = assay: NCI60 one-dose screen (10 μM), Colon Cancer; assay type: cell-based, human; settings: Homo sapiens; 10 μM; COLO 205, Colon Cancer; read-out: Growth percent rate
HCT-15 = assay: NCI60 one-dose screen (10 μM), Colon Cancer; assay type: cell-based; settings: Homo sapiens; 10 μM; HCT-15, Colon Cancer; read-out: Growth percent rate
HT29 = assay: NCI60 one-dose screen (10 μM), Colon Cancer; assay type: cell-based; settings: Homo sapiens, HT-29; 10 μM; HT29, Colon Cancer; read-out: Growth percent rate
KM12 = assay: NCI60 one-dose screen (10 μM), Colon Cancer; assay type: cell-based, human
SW-620 = assay: NCI60 one-dose screen (10 μM), Colon Cancer; assay type: cell-based; settings: Homo sapiens; 10 μM; SW-620, Colon Cancer; read-out: Growth percent rate
SF-268 = assay: NCI60 one-dose screen (10 μM), CNS Cancer; assay type: cell-based; settings: Homo sapiens; 10 μM; SF-268, CNS Cancer; read-out: Growth percent rate
SF-295 = assay: NCI60 one-dose screen (10 μM), CNS Cancer; assay type: cell-based; settings: Homo sapiens; 10 μM; SF-295, CNS Cancer; read-out: Growth percent rate
SF-539 = assay: NCI60 one-dose screen (10 μM), CNS Cancer; assay type: cell-based, human
SNB-19 = assay: NCI60 one-dose screen (10 μM), CNS Cancer; assay type: cell-based; settings: Homo sapiens; 10 μM; SNB-19, CNS Cancer; read-out: Growth percent rate
SNB-75 = assay: NCI60 one-dose screen (10 μM), CNS Cancer; assay type: cell-based, human
U251 = assay: NCI60 one-dose screen (10 μM), CNS Cancer; assay type: cell-based; settings: Homo sapiens, U-251; 10 μM; U251, CNS Cancer; read-out: Growth percent rate
LOX IMVI = assay: NCI60 one-dose screen (10 μM), Melanoma; assay type: cell-based, human
MALME-3M = assay: NCI60 one-dose screen (10 μM), Melanoma; assay type: cell-based; settings: Homo sapiens; 10 μM; MALME-3M, Melanoma; read-out: Growth percent rate
M14 = assay: NCI60 one-dose screen (10 μM), Melanoma; assay type: cell-based; settings: Homo sapiens; 10 μM; M14, Melanoma; read-out: Growth percent rate
MDA-MB-435 = assay: NCI60 one-dose screen (10 μM), Melanoma; assay type: cell-based; settings: Homo sapiens; 10 μM; MDA-MB-435, Melanoma; read-out: Growth percent rate
SK-MEL-2 = assay: NCI60 one-dose screen (10 μM), Melanoma; assay type: cell-based; settings: Homo sapiens; 10 μM; SK-MEL-2, Melanoma; read-out: Growth percent rate
SK-MEL-28 = assay: NCI60 one-dose screen (10 μM), Melanoma; assay type: cell-based; settings: Homo sapiens; 10 μM; SK-MEL-28, Melanoma; read-out: Growth percent rate
SK-MEL-5 = assay: NCI60 one-dose screen (10 μM), Melanoma; assay type: cell-based, human
UACC-257 = assay: NCI60 one-dose screen (10 μM), Melanoma; assay type: cell-based; settings: Homo sapiens; 10 μM; UACC-257, Melanoma; read-out: Growth percent rate
IGROV1 = assay: NCI60 one-dose screen (10 μM), Ovarian Cancer; assay type: cell-based; settings: Homo sapiens, IGROV-1; 10 μM; IGROV1, Ovarian Cancer; read-out: Growth percent rate
OVCAR-4 = assay: NCI60 one-dose screen (10 μM), Ovarian Cancer; assay type: cell-based; settings: Homo sapiens; 10 μM; OVCAR-4, Ovarian Cancer; read-out: Growth percent rate
OVCAR-8 = assay: NCI60 one-dose screen (10 μM), Ovarian Cancer; assay type: cell-based; settings: Homo sapiens; 10 μM; OVCAR-8, Ovarian Cancer; read-out: Growth percent rate
786–0 = assay: NCI60 one-dose screen (10 μM), Renal Cancer; assay type: cell-based; settings: Homo sapiens; 10 μM; 786-0, Renal Cancer; read-out: Growth percent rate
A498 = assay: NCI60 one-dose screen (10 μM), Renal Cancer; assay type: cell-based; settings: Homo sapiens; 10 μM; A498, Renal Cancer; read-out: Growth percent rate
ACHN = assay: NCI60 one-dose screen (10 μM), Renal Cancer; assay type: cell-based; settings: Homo sapiens, 10 μM, Renal Cancer, read-out: Growth percent rate
CAKI-1 = assay: NCI60 one-dose screen (10 μM), Renal Cancer; assay type: cell-based; settings: Homo sapiens; 10 μM; CAKI-1, Renal Cancer; read-out: Growth percent rate
RXF 393 = assay: NCI60 one-dose screen (10 μM), Renal Cancer; assay type: cell-based, human; settings: Homo sapiens; 10 μM; RXF 393, Renal Cancer; read-out: Growth percent rate
TK-10 = assay: NCI60 one-dose screen (10 μM), Renal Cancer; assay type: cell-based; settings: Homo sapiens; 10 μM; TK-10, Renal Cancer; read-out: Growth percent rate
DU-145 = assay: NCI60 one-dose screen (10 μM), Prostate Cancer; assay type: cell-based; settings: Homo sapiens; 10 μM; DU-145, Prostate Cancer; read-out: Growth percent rate
MCF7 = assay: NCI60 one-dose screen (10 μM), Breast Cancer; assay type: cell-based; settings: Homo sapiens; 10 μM; MCF7, Breast Cancer; read-out: Growth percent rate
[1] = system: 60 human tumor cell lines (NCI60); assay: NCI60 one-dose screen (10 μM), whole panel; assay type: cell-based

CCC12C=CCN3CCC4(c5cc(NC(=O)CN6CCN(c7ccc(C(F)(F)F)cc7)CC6)c(OC)cc5N(C)C4C(O)(C(=O)OC)C1OC(C)=O)C32 (centres unmarked) [Compound 17]
activity at 10 µM (CCRF-CEM): -7.07% | activity at 10 µM (HL-60(TB)): 1.98% | activity at 10 µM (K-562): 11.4% | activity at 10 µM (MOLT-4): 8.66% | activity at 10 µM (RPMI-8226): -14.1% | activity at 10 µM (A549/ATCC): 20.3% | activity at 10 µM (HOP-62): -38.8% | activity at 10 µM (NCI-H23): 15.2% | activity at 10 µM (NCI-H322M): 39.1% | activity at 10 µM (NCI-H460): 9.27% | activity at 10 µM (COLO 205): -74.5% | activity at 10 µM (HCT-15): -56.5% | activity at 10 µM (HT29): -68.8% | growth percent rate (KM12; 10 μM one-dose, KM12 colon cancer, negative = lethality): −84.40% | activity at 10 µM (KM12; Homo sapiens, 10 μM, KM12, Colon Cancer, read-out: Growth percent rate): -84.4% | activity at 10 µM (SW-620): 1.45% | activity at 10 µM (SF-268): -6.14% | activity at 10 µM (SF-295): -70.2% | growth percent rate (SF-539; 10 μM one-dose, SF-539 CNS cancer, negative = lethality): < −80% | activity at 10 µM (SF-539; Homo sapiens, 10 μM, SF-539, CNS Cancer, read-out: Growth percent rate): -83.4% | activity at 10 µM (SNB-19): 18.4% | growth percent rate (SNB-75; 10 μM one-dose, SNB-75 CNS cancer, negative = lethality): < −80% | activity at 10 µM (SNB-75; Homo sapiens, 10 μM, SNB-75, CNS Cancer, read-out: Growth percent rate): -87.6% | activity at 10 µM (U251): 7.24% | growth percent rate (LOX IMVI; 10 μM one-dose, LOX-IMVI melanoma, negative = lethality): −95.37% | activity at 10 µM (LOX IMVI; Homo sapiens, 10 μM, LOX IMVI, Melanoma, read-out: Growth percent rate): -95.4% | activity at 10 µM (MALME-3M): -89.5% | activity at 10 µM (M14): -31.1% | activity at 10 µM (MDA-MB-435): -79.8% | activity at 10 µM (SK-MEL-2): -66.2% | activity at 10 µM (SK-MEL-28): -67.6% | growth percent rate (SK-MEL-5; 10 μM one-dose, SK-MEL-5 melanoma, negative = lethality): −98.17% | activity at 10 µM (SK-MEL-5; Homo sapiens, 10 μM, SK-MEL-5, Melanoma, read-out: Growth percent rate): -98.2% | activity at 10 µM (UACC-257): -65.3% | activity at 10 µM (IGROV1): 12.7% | activity at 10 µM (OVCAR-4): 20.4% | activity at 10 µM (OVCAR-8): 26.3% | activity at 10 µM (786–0): 24.8% | activity at 10 µM (A498): -9.05% | activity at 10 µM (ACHN): 3.15% | activity at 10 µM (CAKI-1): 10.8% | activity at 10 µM (RXF 393): -36.5% | activity at 10 µM (TK-10): 33.4% | activity at 10 µM (DU-145): 24.1% | activity at 10 µM (MCF7): 0.95% | antiproliferative effect (in words) ([1]; 10 μM one-dose, NCI60): highly effective in several types of cancer | activity at 10 µM ([1]; 10 μM, mean over 60 human cancer cell lines, read-out: Growth percent rate, Mean): -24.7%
